The NIST ThermoML archive (doi:10.1021/acs.jced.7b01018)

Conditions: Liquid, Frequency=2 MHz, Single path-length method

CCO [ethanol]
Conditions | speed of sound [m/s]
323.31 K, 1410 kPa | 1070.7
323.31 K, 5245 kPa | 1096.8
323.31 K, 11101 kPa | 1135
323.31 K, 17687 kPa | 1174.5
323.31 K, 23114 kPa | 1204.2
323.31 K, 30237 kPa | 1241.9
323.31 K, 36831 kPa | 1274.5
323.31 K, 43809 kPa | 1306
323.31 K, 50864 kPa | 1337.3
323.31 K, 58500 kPa | 1369.4
323.31 K, 62862 kPa | 1386.2
347.1 K, 1446 kPa | 991.29
347.1 K, 4092 kPa | 1011.8
347.1 K, 7163 kPa | 1035
347.1 K, 14616 kPa | 1085.6
347.1 K, 21177 kPa | 1126.4
347.1 K, 28408 kPa | 1168.1
347.1 K, 35022 kPa | 1203.4
347.1 K, 42067 kPa | 1238.6
347.1 K, 48843 kPa | 1270.3
347.1 K, 54137 kPa | 1294.1
347.1 K, 58348 kPa | 1312.6
347.1 K, 62859 kPa | 1331.6
369.38 K, 1432 kPa | 914.53
369.38 K, 3923 kPa | 936.5
369.38 K, 7109 kPa | 963.26
369.38 K, 11382 kPa | 996.24
369.38 K, 19601 kPa | 1053.8
369.38 K, 27704 kPa | 1104.7
369.38 K, 33060 kPa | 1135.3
369.38 K, 41165 kPa | 1179.1
369.38 K, 49420 kPa | 1220.3
369.38 K, 54796 kPa | 1246.1
369.38 K, 58367 kPa | 1261.5
369.38 K, 65148 kPa | 1291.2
397.28 K, 1546 kPa | 811.26
397.28 K, 4302 kPa | 840.39
397.28 K, 7333 kPa | 870.18
397.28 K, 12482 kPa | 915.79
397.28 K, 18105 kPa | 960.62
397.28 K, 24432 kPa | 1006.2
397.28 K, 29996 kPa | 1043.3
397.28 K, 36074 kPa | 1080.7
397.28 K, 44752 kPa | 1129.5
397.28 K, 49805 kPa | 1156
397.28 K, 58415 kPa | 1198.6
397.28 K, 63790 kPa | 1223.5
422.9 K, 1514 kPa | 701.53
422.9 K, 5675 kPa | 755.36
422.9 K, 9530 kPa | 798.44
422.9 K, 15206 kPa | 853.77
422.9 K, 23492 kPa | 923.37
422.9 K, 31793 kPa | 984.06
422.9 K, 38446 kPa | 1027.7
422.9 K, 47571 kPa | 1082
422.9 K, 53132 kPa | 1112.2
422.9 K, 58734 kPa | 1141.2
422.9 K, 63754 kPa | 1166.2
